Reference: patent US11286268B1, “EIF4E-inhibiting compounds and methods” (EFFECTOR THERAPEUTICS, INC., priority 2019, dated 2022)
pIC50: −log10 of the molar value. Like-named read-outs stand apart in the source and are kept apart here.

Molecular target: recombinant eIF4E (Homo sapiens (Human), UniProt P06730)
Assay: Fluorescence polarization competition assay for eIF4E binding potency
In short: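 Competition of test compound against 20 nM EDA-m^7GDP-ATTO-550 for 75 nM recombinant eIF4E, pre-incubated 5 min, in 20 mM Tris pH 7.5, 100 mM NaCl, 1 mM DTT, 0.02% Tween-20, 1% DMSO. Equilibrated 30 min at room temperature, dark; fluorescence polarization read. IC50 from 8-point, 3-fold dilution series.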

[1] = fluorescence polarization competition, 75 nM recombinant eIF4E, 20 nM EDA-m7GDP-ATTO-550, IC50 class, read-out: elF4E FP
[2] = inhibition of eIF4E/EDA-m7GDP-ATTO-550 binding by 50%, Table 4B calculated values, read-out: IC50

Chain of recombinant eIF4E (P06730 whole entry): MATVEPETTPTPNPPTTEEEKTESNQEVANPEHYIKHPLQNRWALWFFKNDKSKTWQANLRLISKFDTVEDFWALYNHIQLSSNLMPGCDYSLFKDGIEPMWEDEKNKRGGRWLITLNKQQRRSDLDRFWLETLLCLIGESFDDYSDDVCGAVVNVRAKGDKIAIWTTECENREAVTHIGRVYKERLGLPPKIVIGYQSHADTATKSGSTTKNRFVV

| Structure (SMILES) | pIC50 [1] | pIC50 [2] |
| --- | --- | --- |
| Cc1cc(-c2ncc3nc(C)n(CCOc4ccc(Cl)cc4-c4cc(C)nc5c(C(=O)O)csc45)c(=O)c3c2C#N)cc(C)n1 [compound 873] | > 7.30 | 7.80 |
| Cc1cc(-c2cc(Cl)ccc2OCCn2c(C)nc3c(C)nc(-c4cnc(N)cc4F)c(C#N)c3c2=O)c2scc(C(=O)O)c2n1 [compound 874] | > 7.30 | 7.38 |
| Cc1cc(-c2cc(Cl)ccc2OCCn2c(C)nc3c(C)nc(N4CCN(C)CC4)c(C#N)c3c2=O)c2scc(C(=O)O)c2n1 [compound 875] | > 7.30 |  |
| Cc1cc(-c2cc(Cl)ccc2OCCn2c(C)nc3cc(C(F)(F)F)c(Br)c(C#N)c3c2=O)c2scc(C(=O)O)c2n1 [compound 876] | 6.00 to 7.30 | 7.13 |
| Cc1cc(-c2cc(Cl)ccc2OCCn2c(C)nc3cc(C(F)(F)F)c(C4CCNCC4)cc3c2=O)c2sc(C)c(C(=O)O)c2n1 [compound 877] | 6.00 to 7.30 | 6.63 |
| Cc1cc(-c2cc(Cl)ccc2OCCn2c(C)nc3c(C)nc(N4CCNCC4)c(C#N)c3c2=O)c2scc(C(=O)O)c2n1 [compound 878] | > 7.30 | 8.02 |
| Cc1cc(-c2cc(Cl)ccc2OCCn2c(C)nc3cc(C(F)(F)F)c(N4CCNCC4)c(C#N)c3c2=O)c2sc(C)c(C(=O)O)c2n1 [compound 879] | > 7.30 | 8.14 |
| Cc1nc2cc(C(F)(F)F)c(C3CCNCC3)cc2c(=O)n1CCOc1ccc(Cl)cc1-c1ccnc2c(C(=O)O)csc12 [compound 880] | 6.00 to 7.30 | 7.17 |
| Cc1nc2cc(C(F)(F)F)c(C3CCN(C)CC3)cc2c(=O)n1CCOc1ccc(Cl)cc1-c1ccnc2c(C(=O)O)csc12 [compound 881] | > 7.30 | 7.69 |
| Cc1nc2cnc(C3=CCC(F)(F)CC3)c(C#N)c2c(=O)n1CCOc1ccc(Cl)cc1-c1ccnc2c(C(=O)O)csc12 [compound 882] | > 7.30 | 8.18 |
| Cc1cc(-c2cc(Cl)ccc2OCCn2c(C)nc3cnc(N4CC[C@@H](O)C4)c(C#N)c3c2=O)c2scc(C(=O)O)c2n1 [compound 883] | > 7.30 | 7.89 |
| Cc1cc(-c2cc(Cl)ccc2OCCn2c(C)nc3cnc(N4CCC(=O)C4)c(C#N)c3c2=O)c2scc(C(=O)O)c2n1 [compound 884] | > 7.30 | 8.23 |
| Cc1nc(N2CCN(CC(F)(F)F)CC2)c(C#N)c2c(=O)n(CCOc3ccc(Cl)cc3-c3ccnc4c(C(=O)O)csc34)c(C)nc12 [compound 886] | > 7.30 | 7.98 |
| Cc1sc2c(-c3cc(Cl)ccc3OCCn3c(C)nc4cc(C(F)(F)F)c(C5CCNCC5)c(C#N)c4c3=O)ccnc2c1C(=O)O [compound 887] | > 7.30 | 7.70 |
| Cc1nc2cnc(C3=CCN(C)CC3)c(C#N)c2c(=O)n1CCOc1ccc(Cl)cc1-c1ccnc2c(C(=O)O)csc12 [compound 888] | > 7.30 | 7.40 |
| Cc1nc2cnc(C3=CCN(CC(F)(F)F)CC3)c(C#N)c2c(=O)n1CCOc1ccc(Cl)cc1-c1ccnc2c(C(=O)O)csc12 [compound 889] | > 7.30 | 7.91 |
| Cc1nc2cnc(O)c(C#N)c2c(=O)n1CC#Cc1ccc(Cl)cc1-c1ccnc2c(C(=O)O)csc12 [compound 891] | > 7.30 | 7.86 |
| Cc1nc2cnc(N3CC4(CN(CCF)C4)C3)c(C#N)c2c(=O)n1CC#Cc1ccc(Cl)cc1-c1ccnc2c(C(=O)O)csc12 [compound 892] | > 7.30 | 7.44 |
| Cc1nc2cnc(N3CC4(CN(CC(F)F)C4)C3)c(C#N)c2c(=O)n1CC#Cc1ccc(Cl)cc1-c1ccnc2c(C(=O)O)csc12 [compound 893] | > 7.30 | 7.70 |
| Cc1nc2cnc(N3CC4(CN(CCOC(F)(F)F)C4)C3)c(C#N)c2c(=O)n1CC#Cc1ccc(Cl)cc1-c1ccnc2c(C(=O)O)csc12 [compound 894] | > 7.30 | 7.67 |
| Cc1nc2cnc(N3CCN(CC4CC4)CC3)c(C#N)c2c(=O)n1CC#Cc1ccc(Cl)cc1-c1ccnc2c(C(=O)O)csc12 [compound 895] | > 7.30 | 7.64 |
| CCc1cc(-c2cc(Cl)ccc2OCCn2c(C)nc3cc(CN(C)C)c(OC(F)F)c(C#N)c3c2=O)c2scc(C(=O)O)c2n1 [compound 896] |  | 8.80 |
| COc1ncc2nc(C)n(CCOc3ccc(Cl)cc3-c3cc(C)nc4c(C(=O)O)csc34)c(=O)c2c1C#N [compound 897] | > 7.30 | 8.85 |
| Cc1sc2c(-c3cc(Cl)ccc3OCCn3c(C)nc4cc(C(F)(F)F)c(C)c(C#N)c4c3=O)cn(C)c(=O)c2c1C(=O)O [compound 899] | > 7.30 | 8.13 |
| Cc1ncc(-c2cc(Cl)ccc2OCCn2c(C)nc3cnc(C4CC4)c(C#N)c3c2=O)c2scc(C(=O)O)c12 [compound 900] | > 7.30 | 7.95 |
| Cc1cc(-c2cc(Cl)ccc2OCCn2c(C)nc3cc(C(F)(F)F)c(-c4ccncc4C)c(C#N)c3c2=O)c2scc(C(=O)O)c2n1 [compound 901] | > 7.30 | 7.34 |

| Structure (SMILES) | pIC50 [1] | pIC50 [2] |
| --- | --- | --- |
| Cc1cnc(C)c(-c2c(C(F)(F)F)cc3nc(C)n(CCOc4ccc(Cl)cc4-c4cc(C)nc5c(C(=O)O)csc45)c(=O)c3c2C#N)c1 [compound 902] | > 7.30 | 7.85 |
| Cc1cc(-c2cc(Cl)ccc2OCCn2c(C)nc3cc(C(F)(F)F)c(-c4cncc(C)c4C)c(C#N)c3c2=O)c2scc(C(=O)O)c2n1 [compound 903] | > 7.30 | 7.95 |
| Cc1cc(-c2cc(Cl)ccc2OCCn2c(C)nc3cc(C(F)(F)F)c(-c4ccc(C)c(C)n4)c(C#N)c3c2=O)c2scc(C(=O)O)c2n1 [compound 904] | > 7.30 | 8.38 |
| Cc1cc(C)nc(-c2c(C(F)(F)F)cc3nc(C)n(CCOc4ccc(Cl)cc4-c4cc(C)nc5c(C(=O)O)csc45)c(=O)c3c2C#N)c1 [compound 905] | > 7.30 | 8.03 |
| Cc1ccc(C)c(-c2c(C(F)(F)F)cc3nc(C)n(CCOc4ccc(Cl)cc4-c4cc(C)nc5c(C(=O)O)csc45)c(=O)c3c2C#N)n1 [compound 906] | > 7.30 | 7.75 |
| Cc1cc(-c2cc(Cl)ccc2OCCn2c(C)nc3cc(C(F)(F)F)c(-c4cn(C)cn4)c(C#N)c3c2=O)c2scc(C(=O)O)c2n1 [compound 907] | > 7.30 | 8.11 |
| Cc1cc(-c2cc(Cl)ccc2C#CCn2c(C)nc3cc(C(F)(F)F)c(-c4ccncn4)c(C#N)c3c2=O)c2scc(C(=O)O)c2n1 [compound 908] | > 7.30 | 8.49 |
| Cc1cc(-c2cc(Cl)ccc2OCCn2c(C)nc3cc(C(F)(F)F)c(CC(=O)N(C)C)c(C#N)c3c2=O)c2scc(C(=O)O)c2n1 [compound 909] | > 7.30 | 7.88 |
| Cc1cc(-c2cc(Cl)ccc2OCCn2c(C)nc3c(-c4ccccc4)nc(C4CC4)c(C#N)c3c2=O)c2scc(C(=O)O)c2n1 [compound 910] | > 7.30 | 7.76 |
| Cc1cc(-c2nc(C)c3nc(C)n(CCOc4ccc(Cl)cc4-c4cc(C)nc5c(C(=O)O)csc45)c(=O)c3c2C#N)ccn1 [compound 911] | > 7.30 | 7.77 |
| Cc1cc(-c2cc(Cl)ccc2OCCn2c(C)nc3cnc(C4CCC4)c(C#N)c3c2=O)c2scc(C(=O)O)c2n1 [compound 912] | > 7.30 | 8.05 |
| Cc1cc(-c2cc(Cl)ccc2OCCn2c(C)nc3cnc(C(C)(F)F)c(C#N)c3c2=O)c2scc(C(=O)O)c2n1 [compound 913] | > 7.30 | 7.79 |
| Cc1cc(-c2cc(Cl)ccc2OCCn2c(C)nc3cnc(C(F)F)c(C#N)c3c2=O)c2scc(C(=O)O)c2n1 [compound 914] | > 7.30 | 7.68 |
| Cc1nc2cnc(C3CC3)c(C#N)c2c(=O)n1CCOc1ccc(Cl)cc1-c1cc(CF)nc2c(C(=O)O)csc12 [compound 917] | > 7.30 | 7.96 |
| Cc1cc(-c2cc(Cl)ccc2OCCn2c(C)nc3cc(Cl)c(N4CCC4(C)C)c(C#N)c3c2=O)c2scc(C(=O)O)c2n1 [compound 918] | > 7.30 | 8.36 |
| Cc1cc(-c2cc(Cl)ccc2OCCn2c(C)nc3cc(Cl)c(N4CCC(F)(F)CC4)c(C#N)c3c2=O)c2scc(C(=O)O)c2n1 [compound 919] | > 7.30 | 7.75 |
| Cc1cc(-c2cc(Cl)ccc2OCCn2c(C)nc3cc(Cl)c(N4CCCC4(C)C)c(C#N)c3c2=O)c2scc(C(=O)O)c2n1 [compound 920] | > 7.30 | 8.24 |
| Cc1cc(-c2cc(Cl)ccc2OCCn2c(C)nc3cc(F)c(-c4cnc(C)s4)c(C#N)c3c2=O)c2scc(C(=O)O)c2n1 [compound 921] | 6.00 to 7.30 | 7.16 |
| Cc1nc2cnc(C3CC3)c(C#N)c2c(=O)n1CCOc1ccc(Cl)cc1Sc1nc(C(=O)O)cs1 [compound 922] | 6.00 to 7.30 | 7.05 |
| CCc1ncc2nc(C)n(CCOc3ccc(Cl)cc3-c3cc(C)nc4c(C(=O)O)csc34)c(=O)c2c1C#N [compound 923] | > 7.30 | 8.43 |
| Cc1cc(-c2cc(Cl)ccc2OCCn2c(C)nc3c(C)nc(-c4ccccc4C(F)(F)F)c(C#N)c3c2=O)c2scc(C(=O)O)c2n1 [compound 924] | > 7.30 | 7.84 |
| Cc1cc(-c2cc(Cl)ccc2OCCn2c(C)nc3c(C)nc(-c4cccc(C(F)(F)F)c4)c(C#N)c3c2=O)c2scc(C(=O)O)c2n1 [compound 925] | > 7.30 | 7.37 |
| Cc1cc(-c2cc(Cl)ccc2OCCn2c(C)nc3c(C)nc(-c4ccc(C(F)(F)F)cc4)c(C#N)c3c2=O)c2scc(C(=O)O)c2n1 [compound 926] | > 7.30 | 7.74 |
| Cc1cc(-c2cc(Cl)ccc2OCCn2c(C)nc3c(C)nc(-c4cc(F)ccc4C)c(C#N)c3c2=O)c2scc(C(=O)O)c2n1 [compound 927] | > 7.30 | 8.20 |
| Cc1cc(-c2cc(Cl)ccc2OCCn2c(C)nc3cnc(C4CC(F)(F)C4)c(C#N)c3c2=O)c2scc(C(=O)O)c2n1 [compound 928] | > 7.30 | 7.41 |
